Test [1] relates to ER-positive breast cancer. Description: 5 years of adjuvant tamoxifen in patients with ER-positive breast cancer: distant relapse. Particulars: for 10-year distant metastasis-free survival: adjuvant tamoxifen. The format is in vivo, human.
Experimental: To examine the value of Tau as predictor of survival after 5 years of adjuvant tamoxifen therapy, we used data provided by the Institut Jules Bordet. This included gene expression and survival data on 267 patients with ER-positive tumors treated with adjuvant tamoxifen. […] In all data sets, ER-status was determined from routine pathological assessment including immunohistochemistry or ER-ligand-binding assay for the older specimens. The cut-off for ER-positivity was 10 fmol/mg protein or >10% positive cells by immunohistochemistry.
This test was used because of the non-normal distribution of Tau. The prognostic value of Tau in untreated and tamoxifen-treated patients was assessed by examining the association between Tau expression and the occurrence of distant metastases using the Wilcoxon test. To assess if covariates including grade, tumor size and nodal status were associated with Tau levels we performed multivariate linear regression analysis. Kaplan-Meier survival curves were compared using the Log-rank test. In order to generate Kaplan-Meier curves, patients had to be assigned to various Tau expression groups. However, no cut off points have been established previously to assign low or high Tau status to cases based on microarray results. Furthermore, normalized expression values differed between the data sets, particularly for the prognostic data set that used different normalization procedure. In the absence of accepted cut off values and considering the non-normal expression distribution of Tau, we grouped patients by tertiles and quartiles.
A further test has as its system breast cancer cells. Description: Drug sensitivity of breast cancer cells after down regulation of Tau by siRNA. The format is cell-based. Particulars: cancer cells in vitro. The source says:
Low expression of Tau is associated with known clinicopathological predictors of response to chemotherapy such as ER-negative status and high nuclear grade. However, in contrast to these predictors that are not treatment regimen-specific, low Tau may predict extreme sensitivity to a particular drug, paclitaxel. Since Tau is a microtubule associated protein, Tau has a mechanistic role in determining cellular response to paclitaxel, which is a microtubule poison.
The inventors have validated this association at the protein level on an independent set of patients (n=122) using immunohistochemistry. […] Tau partially protects cells from paclitaxel induced apoptosis by reducing paclitaxel binding to tubulin and reducing paclitaxel induced microtubule polymerization. […] As described herein, low levels of Tau mRNA expression as measured by, but not limited to, cDNA microarrays or Tau protein expression detected by immunohistochemistry, are associated with higher rates of pathologic CR to T/FAC pre-operative chemotherapy for stage I-III breast cancer. […] Pathologic CR in this context means complete eradication of the invasive cancer from the breast and lymph nodes by chemotherapy and has consistently been associated with excellent long-term survival that is independent of other tumor characteristics.

Setting [2] is: Tamoxifen treated group (n = 267).

Regarding `CC/C(=C(\c1ccccc1)c1ccc(OCCN(C)C)cc1)c1ccccc1` [tamoxifen], in test [1] (setting [2]), the “Metastases within 5 years: No, patients (%)” value is 160 (60%) and the “Metastases within 5 years: Yes, patients (%)” value is listed as 38 (14%). Besides, the “10-year distant metastasis-free survival” value in test [1] (Tau mRNA levels <183) was found to be 65%. Moreover, the “10-year distant metastasis-free survival” value in test [1] (Tau mRNA levels >183) was 78%.
Take `CC(=O)O[C@H]1C(=O)[C@@]2(C)[C@H]([C@H](OC(=O)c3ccccc3)[C@]3(O)C[C@H](OC(=O)[C@H](O)[C@@H](NC(=O)c4ccccc4)c4ccccc4)C(C)=C1C3(C)C)[C@]1(OC(C)=O)CO[C@@H]1C[C@@H]2O` [paclitaxel]: the “change of sensitivity to the drug on down regulation of Tau with siRNA” value with breast cancer cells was “increases their sensitivity”.
Same read-out and setting: the result for `COc1cccc2c1C(=O)c1c(O)c3c(c(O)c1C2=O)C[C@@](O)(C(=O)CO)C[C@@H]3O[C@H]1C[C@H](N)[C@@H](O)[C@H](C)O1` [epirubicin] reads “not to epirubicin”.

The values above are taken from patent US20100178651A1, “Bifunctional Predictors of Cancer Treatment Sensitivity and Resistance” (priority 2006, published 2010).
